This note sets out measurements from patent US11753407B2, “Compounds for treating spinal muscular atrophy” (PTC Therapeutics, Inc., priority 2012, dated 2023).

Molecules are shown by their SMILES.

The subject of data set [1] is SMN2 minigene mRNA (SMN2-A minigene) in HEK293H cells. Description: SMN2 minigene mRNA splicing RT-qPCR assay in cultured cells. Type of data set: cell-based, human. The settings on record: Homo sapiens, HEK293-H; concentration increasing full length SMN2 mRNA 1.5-fold relative to vehicle-treated cells; HEK293H cells with SMN2-A minigene, 24 hours, 7-point concentration data; read-out: EC1.5x for production of full length SMN2 mRNA. Put shortly: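 Potency reflects the concentration that lifts full-length SMN2 minigene mRNA 1.5-fold above vehicle in stably transfected HEK293H cells after 24 h of treatment. Transcript abundance came from RT-qPCR as (1+E)^−Ct, normalized to GAPDH; endogenous SMN1/SMN2 are not detected.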
A general note: Real-time PCR tracks product formation cycle by cycle.

The test system of data set [2] is Smn protein in SMA patient fibroblast cells (GM03813). Kind of data set: Smn protein assay in cultured cells (SMN HTRF). Type of data set: cell-based, human. Particulars: SMA patient fibroblast cells, 48 hours; for EC1.5x for Smn protein expression: 7-point concentration curve, SMN HTRF, concentration producing 1.5 times Smn protein vs DMSO vehicle control; for maximum fold (Fold) increase of Smn protein: 7-point concentration data, fold relative to vehicle control. Put shortly: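 Smn protein abundance in treated SMA fibroblasts was measured by HTRF after 48 h compound exposure. The reported EC1.5× is the concentration producing 1.5 times vehicle Smn levels.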

As a reminder, the melting point is the temperature of the solid-liquid transition. `Cc1cn2cc(-c3cc(=O)n4cc(N5CCN6CCC[C@@H]6C5)ccc4n3)cc(F)c2n1` [Compound 272, 2-(8-fluoro-2-methylimidazo[1,2-a]pyridin-6-yl)-7-[(8aR)-hexahydropyrrolo[1,2-a]pyrazin-2(1H)-yl]-4H-pyrido[1,2-a]pyrimidin-4-one] registered a melting point of 277 to 280 °C. In addition, the EC (1.5-fold increase) in data set [1] was less than 0.1 µM. Also, in data set [2], the “EC1.5x for Smn protein expression” value was “**** (an EC1.5x≤0.3 μM is indicated by four stars (****))” and the “maximum fold (Fold) increase of Smn protein” value (from here on “maximum fold (Fold) increase”) was “***** (a fold increase >1.65 is indicated by five stars (*****))”.

The molecule `CCN1CCC(c2ccc3nc(-c4cc5c(C)nc(C)cn5n4)cc(=O)n3n2)CC1` [Compound 514, 2-(4,6-dimethylpyrazolo[1,5-a]pyrazin-2-yl)-7-(1-ethylpiperidin-4-yl)-4H-pyrimido[1,2-b]pyridazin-4-one] showed a melting point of 283 to 285 °C. For the same molecule, the EC (1.5-fold increase) in data set [1] fell in the range of 0.1 to 0.3 µM. Also, in data set [2], the “EC1.5x for Smn protein expression” value was “** (an EC1.5× between >1 μM and ≤3 μM is indicated by two stars (**))”; the “maximum fold (Fold) increase” value was “***** (a fold increase >1.65 is indicated by five stars (*****))”.

In turn, `Cc1nc2ccc(-c3cc(=O)n4cc(N5CCC(N)CC5)ccc4n3)cc2s1` [Compound 381, 7-(4-aminopiperidin-1-yl)-2-(2-methyl-1,3-benzothiazol-6-yl)-4H-pyrido[1,2-a]pyrimidin-4-one] displayed a melting point of 190 to 194 °C. Besides, the EC (1.5-fold increase) in data set [1] was in the range of 0.1 to 0.3 µM. Besides, in data set [2], the “EC1.5x for Smn protein expression” value is “* (An EC1.5× for Smn protein expression between >3 μM and ≤10 μM is indicated by one star (*))”; the “maximum fold (Fold) increase” value was “*** (a fold increase between >1.35 and ≤1.5 is indicated by three stars (***))”.

In turn, `Cc1nc2ccc(-c3cc(=O)n4cc(N5CCN(C)CC5)ccc4n3)cc2o1` [Cpd 171, 2-(2-methyl-1,3-benzoxazol-6-yl)-7-(4-methylpiperazin-1-yl)-4H-pyrido[1,2-a]pyrimidin-4-one] gave a melting point of 178 to 183 °C. In data set [1], the EC (1.5-fold increase) is less than 0.1 µM. Also, in data set [2], the “EC1.5x for Smn protein expression” value was “**** (an EC1.5x≤0.3 μM is indicated by four stars (****))” and the “maximum fold (Fold) increase” value is given as “***** (a fold increase >1.65 is indicated by five stars (*****))”.

The molecule `COc1ccc(-c2cc(=O)n3nc(C4=CCNCC4)ccc3n2)cc1OC` [Cpd 398, 2-(3,4-dimethoxyphenyl)-7-(1,2,3,6-tetrahydropyridin-4-yl)-4H-pyrimido[1,2-b]pyridazin-4-one] came in with a melting point of 195 to 200 °C. In addition, the EC (1.5-fold increase) in data set [1] was 0.3 to 1 µM. Besides, in data set [2], the “EC1.5x for Smn protein expression” value was “** (an EC1.5× between >1 μM and ≤3 μM is indicated by two stars (**))”; the “maximum fold (Fold) increase” value is reported as “***** (a fold increase >1.65 is indicated by five stars (*****))”.

On to `Cc1cn2nc(-c3cc(=O)n4cc(N5CCC(NCCO)CC5)cc(C)c4n3)cc2c(C)n1` [Compound 609, 2-(4,6-dimethylpyrazolo[1,5-a]pyrazin-2-yl)-7-{4-[(2-hydroxyethyl)amino]piperidin-1-yl}-9-methyl-4H-pyrido[1,2-a]pyrimidin-4-one], for which the melting point was 221 to 232 °C. Further, in data set [1], the EC (1.5-fold increase) was less than 0.1 µM. In data set [2], the “EC1.5x for Smn protein expression” value is given as “**** (an EC1.5x≤0.3 μM is indicated by four stars (****))” and the “maximum fold (Fold) increase” value is recorded as “***** (a fold increase >1.65 is indicated by five stars (*****))”.

In the case of `Cc1nc2ccc(-c3cc(=O)n4cc(C5=CCN(C)CC5)ccc4n3)cc2o1` [Compound 303, 2-(2-methyl-1,3-benzoxazol-6-yl)-7-(1-methyl-1,2,3,6-tetrahydropyridin-4-yl)-4H-pyrido[1,2-a]pyrimidin-4-one], the melting point lay within 132 to 135 °C. Also, in data set [1], the EC (1.5-fold increase) is less than 0.1 µM. In data set [2], the “EC1.5x for Smn protein expression” value is on record as “**** (an EC1.5x≤0.3 μM is indicated by four stars (****))”; the “maximum fold (Fold) increase” value was “**** (a fold increase between >1.5 and ≤1.65 is indicated by four stars (****))”.

`Cc1cc2cc(-c3cc(=O)n4cc(N5CCN(C)CC5)ccc4n3)oc2c(C)n1` [Compound 487, 2-(5,7-dimethylfuro[2,3-c]pyridin-2-yl)-7-(4-methylpiperazin-1-yl)-4H-pyrido[1,2-a]pyrimidin-4-one]: the melting point lay in the range of 256 to 258 °C. Besides, in data set [1], the EC (1.5-fold increase) lay within 0.1 to 0.3 µM. In data set [2], the “EC1.5x for Smn protein expression” value was “**** (an EC1.5x≤0.3 μM is indicated by four stars (****))”; the “maximum fold (Fold) increase” value was “**** (a fold increase between >1.5 and ≤1.65 is indicated by four stars (****))”.

Molecule `Cc1cn2nc(-c3cc(=O)n4cc(C5CCN(C(C)C)CC5)ccc4n3)cc2c(C)n1` [Compound 640, 2-(4,6-dimethylpyrazolo[1,5-a]pyrazin-2-yl)-7-[1-(propan-2-yl)piperidin-4-yl]-4H-pyrido[1,2-a]pyrimidin-4-one] had a melting point of 196 to 198 °C. For the same molecule, the EC (1.5-fold increase) in data set [1] is less than 0.1 µM. Also, in data set [2], the “EC1.5x for Smn protein expression” value is given as “**** (an EC1.5x≤0.3 μM is indicated by four stars (****))”; the “maximum fold (Fold) increase” value was “**** (a fold increase between >1.5 and ≤1.65 is indicated by four stars (****))”.

The molecule `Cc1cn2nc(-c3cc(=O)n4cc(N5CCN(CCO)CC5)ccc4n3)cc2c(C2CC2)n1` [Compound 686, 2-(4-cyclopropyl-6-methylpyrazolo[1,5-a]pyrazin-2-yl)-7-[4-(2-hydroxyethyl)piperazin-1-yl]-4H-pyrido[1,2-a]pyrimidin-4-one] came in with a melting point of 239 to 241 °C. For the same molecule, in data set [1], the EC (1.5-fold increase) lay within 0.3 to 1 µM. Also, in data set [2], the “EC1.5x for Smn protein expression” value is “** (an EC1.5× between >1 μM and ≤3 μM is indicated by two stars (**))”; the “maximum fold (Fold) increase” value is “***** (a fold increase >1.65 is indicated by five stars (*****))”.

The molecule `Cc1cn2nc(-c3cc(=O)n4cc(N5CC(CN(C)C)C5)ccc4n3)cc2c(C)n1` [Compound 780, 7-{3-[(dimethylamino)methyl]azetidin-1-yl}-2-(4,6-dimethylpyrazolo[1,5-a]pyrazin-2-yl)-4H-pyrido[1,2-a]pyrimidin-4-one] showed a melting point of 228 to 230 °C. Besides, the EC (1.5-fold increase) in data set [1] is less than 0.1 µM. Besides, in data set [2], the “EC1.5x for Smn protein expression” value is “**** (an EC1.5x≤0.3 μM is indicated by four stars (****))” and the “maximum fold (Fold) increase” value is “***** (a fold increase >1.65 is indicated by five stars (*****))”.

In the case of `Cc1cc(-c2cc(=O)n3cc(N4CCN[C@H](C)C4)ccc3n2)cc2cn(C)nc12` [Compound 741, 2-(2,7-dimethyl-2H-indazol-5-yl)-7-[(3R)-3-methylpiperazin-1-yl]-4H-pyrido[1,2-a]pyrimidin-4-one], the melting point fell in the range of 170 to 172 °C. Also, the EC (1.5-fold increase) in data set [1] is less than 0.1 µM. In data set [2], the “EC1.5x for Smn protein expression” value is on record as “**** (an EC1.5x≤0.3 μM is indicated by four stars (****))” and the “maximum fold (Fold) increase” value is recorded as “***** (a fold increase >1.65 is indicated by five stars (*****))”.

In turn, `COc1cccc(-c2cc(=O)n3cc(N4CCN[C@H](C)C4)ccc3n2)c1` [Compound 24, 2-(3-methoxyphenyl)-7-[(3R)-3-methylpiperazin-1-yl]-4H-pyrido[1,2-a]pyrimidin-4-one] had a melting point of 164 to 166 °C. The EC (1.5-fold increase) in data set [1] is 1 to 3 µM. Further, in data set [2], the “EC1.5x for Smn protein expression” value was “* (An EC1.5× for Smn protein expression between >3 μM and ≤10 μM is indicated by one star (*))”; the “maximum fold (Fold) increase” value is “*** (a fold increase between >1.35 and ≤1.5 is indicated by three stars (***))”.

Take `CCc1nc(C)cn2nc(-c3cc(=O)n4cc(N5CCC(C)(N)CC5)ccc4n3)cc12` [Compound 737, 7-(4-amino-4-methylpiperidin-1-yl)-2-(4-ethyl-6-methylpyrazolo[1,5-a]pyrazin-2-yl)-4H-pyrido[1,2-a]pyrimidin-4-one]: the melting point fell in the range of 216 to 218 °C. Moreover, the EC (1.5-fold increase) in data set [1] is less than 0.1 µM. In addition, in data set [2], the “EC1.5x for Smn protein expression” value is “**** (an EC1.5x≤0.3 μM is indicated by four stars (****))” and the “maximum fold (Fold) increase” value is reported as “***** (a fold increase >1.65 is indicated by five stars (*****))”.

In turn, `COc1ccc(-c2cc(=O)n3cc(N4CCC(CN(C)C)CC4)ccc3n2)cc1OC` [Compound 573, 2-(3,4-dimethoxyphenyl)-7-{4-[(dimethylamino)methyl]piperidin-1-yl}-4H-pyrido[1,2-a]pyrimidin-4-one] displayed a melting point of 182 to 184 °C. Besides, in data set [1], the EC (1.5-fold increase) fell in the range of 0.3 to 1 µM. For the same molecule, in data set [2], the “EC1.5x for Smn protein expression” value is “** (an EC1.5× between >1 μM and ≤3 μM is indicated by two stars (**))”; the “maximum fold (Fold) increase” value was “**** (a fold increase between >1.5 and ≤1.65 is indicated by four stars (****))”.

As to `CCc1nc(C)cn2nc(-c3cc(=O)n4cc(N5CCC(N6CCCC6)CC5)ccc4n3)cc12` [Compound 634, 2-(4-ethyl-6-methylpyrazolo[1,5-a]pyrazin-2-yl)-7-[4-(pyrrolidin-1-yl)piperidin-1-yl]-4H-pyrido[1,2-a]pyrimidin-4-one], the melting point fell in the range of 229 to 232 °C. For the same molecule, the EC (1.5-fold increase) in data set [1] was less than 0.1 µM. For the same molecule, in data set [2], the “EC1.5x for Smn protein expression” value is listed as “**** (an EC1.5x≤0.3 μM is indicated by four stars (****))” and the “maximum fold (Fold) increase” value is given as “***** (a fold increase >1.65 is indicated by five stars (*****))”.
